Peptide text beside a SMILES is read from it.
How the values were obtained:
LDLR = LDLR (Homo sapiens, UniProt P01130); experiment: KD (µM)
Text: Table printed on a drawing sheet, FIG. 23
Title: Buffer: HBS + 0.05% P20
Head of the field: KD (µM)
The patent's description of the figure: FIG. 23 is a table showing the binding kinetics results of LDLR binding assays (SPR), high surfactant preparation as described herein for select peptides shown in FIG. 1A-1I.
First copying reader's note: Middle of three side-by-side panels of FIG. 23; the KD cells hold value ± error together.
Where the first naming reader finds the target: description_of_the_figure: FIG. 23 is a table showing the binding kinetics results of LDLR binding assays (SPR)

[1] = DMPC solubility assay, 0.5 mM DMPC (turbidity reduction); type: biochemical; settings: for DMPC solubilizing activity: FIGS. 2A-2D and 3A-3C
Outline: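 Peptides (100 μM final, or 3.16-100 μM for titrations) incubated with 0.5 mM DMPC in water for 15 minutes at room temperature. Turbidity read as absorbance at 405 nm; EC50 from non-linear regression, mean+SD over two runs.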

ARPE-19 cells [2] = experiment: ARPE-19 cholesterol import (BODIPY-Cholesterol); type: cell-based, human
Protocol: (§1) FIG. 12 and FIGS. 14A-14B illustrate the results of ARPE-19 cholesterol import testing. ARPE-19 cells were seeded on 96-well plates at 25,000 cells per well and grown to confluence. A 2× solution of 500 μM DMPC and 50 μM BODIPY-Cholesterol were prepared in serum free DMEM: F12. Peptides were diluted to 20 μM in serum free DMEM: F12 (a 2× solution). Peptides were added to lipid solution in equal parts (60 μL each) and were incubated for 1 hour at 37° C. ARPE-19 cells were serum starved in serum free DMEM: F12 for 1 hour at 37° C. Peptide: Lipid complexes (100 μL total volume per well) were transferred to ARPE-19 cells for 2 hours at 37° C. Cells were washed, fixed, and intracellular fluorescence was read on Promega GloMax at 475 nm excitation, 500-550 emission. Fluorescence values were background corrected from no treatment conditions. Data are presented as mean+SD for two runs.
FIG. 15 illustrates ARPE-19 cholesterol import titration curves for a subset of the peptides. ARPE-19 cells were seeded on 96-well plates at 25,000 cells per well and grown to confluence. A 2× solution of 500 μM DMPC and 50 μM BODIPY-Cholesterol was prepared in serum free DMEM: F12. Peptides were diluted to 0.74-60 μM in serum free DMEM: F12 (2× solutions). Peptides were added to lipid solution in equal parts (60 μL each) to create final peptide concentrations of 0.37-30 µM and incubated for 1 hour at 37° C. ARPE-19 cells were serum starved in serum free DMEM: F12 for 1 hour at 37° C. Peptide: Lipid complexes (100 μL total volume per well) were transferred to ARPE-19 cells for 2 hours at 37° C. Cells were washed, fixed, and intracellular fluorescence was read on Promega GloMax at 475 nm excitation, 500-550 emission. Fluorescence values were background corrected from no treatment conditions. […]
ARPE-19 cells were seeded on 96-well plates at 25,000 cells per well and grown to confluence. […] Cells were washed, fixed, and intracellular fluorescence was read on Promega GloMax at 475 nm excitation, 500-550 emission. Fluorescence values were background corrected from no treatment conditions. […]

HMC3 cells = experiment: HMC3 cholesterol efflux; type: cell-based, human
[3] = DMPC solubility titration, 1 mM DMPC; type: biochemical; settings: 3.16-100 μM peptides, 15 minutes
Protocol: FIGS. 4A-4B illustrate a screening assay based on DMPC solubility, measured by reducing turbidity of DMPC liposome solutions, for a subset of the peptides in FIGS. 1B-1I. FIGS. 4A-4B illustrate DMPC solubility titration curves. Peptide stocks were diluted to 200 μM in H2O (a 2× solution) and serially diluted in H2O over 4 concentrations, then 50 μL of peptide solutions were distributed in triplicate into 96-well plates. A 2 mM solution of 1,2-dimyristoyl-sn-glycero-3-phosphocholine (DMPC) in H2O was prepared, and using a multichannel pipet, 50 μL DMPC solution was rapidly added to the plate. Peptide and lipid solutions were incubated at room temperature for 15 minutes with final concentrations of 3.16-100 μM peptides and 1 mM DMPC. After 15 minutes, absorbance was read on a plate reader at 405 nm. […] Data are presented as mean+SD over two runs. Non-linear regression was used to calculate EC50 values.

HepG2 cells [4] = experiment: HepG2 cholesterol import (BODIPY-Cholesterol); type: cell-based; settings: HepG2, peptide:lipid complexes from 30 μM diluted 1:3
Protocol: HepG2 cells were seeded on a 96-well plate at 10,000 cells per well and grown to confluence. A solution of 500 μM DMPC and 50 μM BODIPY-Cholesterol was prepared in serum free EMEM. Peptides were diluted to 20 μM in serum free EMEM (a 2× solution). Peptides were added to lipid solution in equal parts (60 μL each) to create final 1× concentration and incubated for 1 hour at 37° C. HepG2 cells were serum starved in serum-free EMEM for 1 hour at 37° C. Peptide: Lipid complexes (100 μL total volume per well) were transferred to HepG2 cells for 2 hours at 37° C. Cells were washed, fixed, and intracellular fluorescence was read on Promega GloMax at 475 nm excitation, 500-550 emission. Fluorescence values were background corrected from no treatment conditions. Data are presented as mean+SD for two runs.
HepG2 cells were seeded on 96-well plates at 10,000 cells per well and grown to confluence. Peptide: Lipid complexes were created by preparing a solution of serum-free EMEM containing 30 μM peptide, 750 μM DMPC, and 75 μM BODIPY-Cholesterol. Peptide: Lipid complexes were serially diluted 1:3 for 5 concentrations, and incubated for 1 hour at 37° C. […] Cells were washed, fixed, and intracellular fluorescence was read on Promega GloMax at 475 nm excitation, 500-550 emission. Fluorescence values were background corrected from no treatment conditions. […]

ARPE-19 cells [5] = experiment: ARPE-19 cell lysis (Sytox Green); type: cell-based, human; settings: 3.16-100 μM peptide, 2 h
Protocol: These figures illustrate ARPE-19 cell lysis. ARPE-19 cells were grown in 96-well plates to 75-85% confluence. Peptides at 10 mM were diluted in serum-free DMEM:F12 media into a 20 μM working solution (a 2× solution). Sytox Green was prepared in serum-free DMEM:F12 at a 1 μM working solution (a 2× solution). Equivalent volumes of the peptide and Sytox Green solutions were added to empty 96-well plates and mixed gently. Final peptide concentration was 10 μM. ARPE-19 cells (˜80% confluent in 96-well plates) were washed with DPBS and then incubated in 100 μL of peptide/Sytox Green mixture for 2 h at 37° C. Cells were fixed in 4% paraformaldehyde solution in DPBS and then incubated in 10 μM Hoechst solution for 10 min, washed, and imaged on a Yokogawa CQ1 high-content imager. CellPathfinder software was used to count live/dead cells in 4 fields of view at 20× magnification. Percent (%) lysis was calculated by dividing the number of Sytox Green+ nuclei by the total number of Hoechst+ nuclei.
ARPE-19 cells were grown in 96-well plates to 75-85% confluence. Peptides at 10 mM were diluted in serum-free DMEM: F12 media to solutions between […]. Sytox Green was prepared in serum-free DMEM: F12 media at a 1 μM working solution. Equivalent volumes of the peptide and Sytox Green solutions were added to empty 96-well plates and mixed gently. Final peptide concentration was 3.16-100 μM. ARPE-19 cells (˜80% confluent in 96-well plates) were washed with DPBS and then incubated in 100 μL of peptide/Sytox Green mixture for 2 h at 37° C. Cells were fixed in 4% paraformaldehyde solution in DPBS and then incubated in 10 μM Hoechst solution for 10 min, washed, and imaged on a Yokogawa CQ1 high-content imager. CellPathfinder software was used to count live/dead cells in 4 fields of view at 20× magnification. Percent (%) lysis was calculated by dividing the number of Sytox Green+ nuclei by the total number of Hoechst+ nuclei. Non-linear regression was used to calculate EC50 values.

ARPE-19 cells [6] = experiment: ARPE-19 GAG-dependent cholesterol import (with or without heparin); type: cell-based, human; settings: ARPE-19, 10 μM peptide
Protocol: as §1, with “ARPE-19” for “FIG. 12 and FIGS. 14A-14B illustrate the results of ARPE-19 cholesterol import testing. ARPE-19”, “BODIPY-Cholesterol with or without 100 µg/mL heparin was” for “BODIPY-Cholesterol were”, “and” for “and were”, “presented ±SD” for “presented as mean+SD”, “for 2” for “for two”

HepG2 cells [7] = experiment: HepG2 GAG dependent cholesterol import (with or without heparin); type: cell-based; settings: HepG2, 10 μM peptide, with or without 100 μg/mL heparin
Protocol: HepG2 cells were seeded on 96-well plates at 10,000 cells per well and grown to confluence. A 2× solution of 500 μM DMPC and 50 μM BODIPY-Cholesterol with or without 100 μg/mL heparin was prepared in serum free EMEM. Peptides were diluted to 20 μM in serum-free EMEM (a 2× solution). Peptides were added to lipid solution in equal parts (60 μL each) and incubated for 1 hour at 37° C. HepG2 cells were serum starved in serum-free EMEM for 1 hour at 37° C. Peptide: Lipid complexes (100 μL total volume per well) were transferred to HepG2 cells for 2 hours at 37° C. Cells were washed, fixed, and intracellular fluorescence was read on Promega GloMax at 475 nm excitation, 500-550 emission. Fluorescence values were background corrected from no treatment conditions. Data are presented ±SD for 2 runs.

Chain of LDLR (P01130 22-860 limits assumed): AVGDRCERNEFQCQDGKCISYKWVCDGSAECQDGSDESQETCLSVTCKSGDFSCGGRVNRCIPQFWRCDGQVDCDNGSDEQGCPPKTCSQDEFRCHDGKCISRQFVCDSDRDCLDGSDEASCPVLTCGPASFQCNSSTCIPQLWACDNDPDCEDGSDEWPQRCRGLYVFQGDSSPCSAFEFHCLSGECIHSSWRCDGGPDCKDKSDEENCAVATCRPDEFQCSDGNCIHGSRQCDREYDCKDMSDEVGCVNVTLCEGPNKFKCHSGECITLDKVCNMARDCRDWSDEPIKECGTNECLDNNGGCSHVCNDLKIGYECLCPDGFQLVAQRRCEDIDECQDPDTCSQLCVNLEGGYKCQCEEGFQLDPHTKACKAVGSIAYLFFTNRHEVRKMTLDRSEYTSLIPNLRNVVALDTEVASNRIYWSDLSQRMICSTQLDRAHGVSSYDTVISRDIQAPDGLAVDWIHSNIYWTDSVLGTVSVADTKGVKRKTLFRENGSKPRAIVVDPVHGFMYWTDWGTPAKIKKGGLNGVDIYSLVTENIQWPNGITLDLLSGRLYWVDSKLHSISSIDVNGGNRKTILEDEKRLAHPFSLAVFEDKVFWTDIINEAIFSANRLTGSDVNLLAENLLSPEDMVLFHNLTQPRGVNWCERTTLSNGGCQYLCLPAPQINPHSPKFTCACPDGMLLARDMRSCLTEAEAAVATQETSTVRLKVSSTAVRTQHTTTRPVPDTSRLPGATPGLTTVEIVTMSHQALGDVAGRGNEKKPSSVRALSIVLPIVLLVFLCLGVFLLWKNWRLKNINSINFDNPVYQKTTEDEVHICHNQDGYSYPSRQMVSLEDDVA

Compound | Kd (LDLR) | DMPC solubilizing activity [1] | cholesterol import titration (ARPE-19 cells [2]; ARPE-19, peptide:lipid complexes from 30 μM diluted 1:3, FIG. 16) | cholesterol efflux titration (HMC3 cells; HMC3, 0-100 μM peptide, LXR agonist) | cholesterol efflux in the presence of LXR agonist (HMC3 cells; HMC3, 20 μM peptide, 4 hours) | EC50 [3] | EC50 ([1]; 3.16-100 μM peptides, 15 minutes) | cholesterol import titration (ARPE-19 cells [2]; ARPE-19, 0.37-30 μM peptide, FIG. 15) | cholesterol import titration (HepG2 cells [4]) | EC50 (ARPE-19 cells [5]) | GAG dependence of cholesterol import (ARPE-19 cells [6]) | GAG dependence of cholesterol import (HepG2 cells [7])
CC(C)C[C@H](NC(=O)[C@H](CCCNC(=N)N)NC(=O)[C@H](CC(=O)O)NC(=O)[C@H](CCC(N)=O)NC(=O)[C@H](CC(C)C)NC(=O)[C@H](CCCCN)NC(=O)[C@H](CC(=O)O)NC(=O)CNC(=O)[C@H](CC(=O)O)NC(=O)[C@H](CCCNC(=N)N)NC(=O)[C@H](Cc1ccccc1)NC(=O)[C@H](CC(C)C)NC(=O)[C@H](CCCNC(=N)N)NC(=O)[C@H](CCCCN)NC(=O)[C@H](CCCNC(=N)N)NC(=O)[C@H](CC(C)C)NC(=O)[C@H](CCCCN)NC(=O)[C@H](CCCNC(=N)N)NC(=O)[C@H](CC(C)C)NC(=O)[C@@H](N)Cc1c[nH]cn1)C(=O)N[C@@H](C)C(=O)N[C@@H](CCC(=O)O)C(=O)N[C@@H](Cc1ccc(O)cc1)C(=O)N[C@@H](CCC(N)=O)C(=O)N[C@@H](C)C(=O)N[C@@H](CCCNC(=N)N)C(=O)N[C@@H](C)C(=O)N[C@@H](CCCCN)C(=O)N[C@@H](CCC(=O)O)C(=O)N[C@@H](C)C(=O)N[C@@H](Cc1ccccc1)C(=O)N[C@@H](CC(=O)O)C(=O)N[C@@H](CCCNC(=N)N)C(=O)O [T-060] (H-HLRKLRKRLFRDGDKLQDRLAEYQARAKEAFDR-OH; N-terminus and C-terminus assumed) | 150 ± 41.7 µM |  |  |  |  |  |  |  |  |  |  | 
CC(C)C[C@H](NC(=O)[C@H](C)NC(=O)[C@H](CCCNC(=N)N)NC(=O)[C@H](Cc1ccccc1)NC(=O)[C@H](CCCNC(=N)N)NC(=O)[C@H](CCC(=O)O)NC(=O)[C@@H](N)Cc1c[nH]c2ccccc12)C(=O)N[C@@H](Cc1ccccc1)C(=O)N[C@@H](CCCCN)C(=O)N[C@@H](CCC(=O)O)C(=O)N[C@@H](CC(C)C)C(=O)N[C@@H](C)C(=O)N[C@@H](CC(=O)O)C(=O)N[C@@H](Cc1ccc(O)cc1)C(=O)N[C@@H](Cc1ccccc1)C(=O)N[C@@H](CCCNC(=N)N)C(=O)N[C@@H](CC(=O)O)C(=O)N[C@@H](C)C(=O)O [T-086] (H-WERFRALFKELADYFRDA-OH; N-terminus and C-terminus assumed) |  | significant activity | not able to increase cholesterol import | concentration-dependent increase in cholesterol efflux | greater cholesterol efflux | 15.8 µM |  |  |  |  |  | 
CSCC[C@H](NC(=O)[C@H](CC(C)C)NC(=O)[C@H](CC(=O)O)NC(=O)[C@H](CCCCN)NC(=O)CNC(=O)[C@H](Cc1ccc(O)cc1)NC(=O)[C@H](CC(=O)O)NC(=O)[C@@H](NC(=O)[C@@H](NC(=O)[C@@H](NC(=O)[C@H](CCC(N)=O)NC(=O)[C@H](Cc1ccccc1)NC(=O)[C@H](Cc1ccc(O)cc1)NC(=O)[C@H](CCC(N)=O)NC(=O)[C@H](CO)NC(=O)[C@@H](NC(=O)[C@H](CC(C)C)NC(=O)[C@H](CO)NC(=O)[C@H](CCCNC(=N)N)NC(=O)[C@H](CC(C)C)NC(=O)[C@H](CC(C)C)NC(=O)[C@H](CCCNC(=N)N)NC(=O)[C@H](CCCCN)NC(=O)[C@H](CCCNC(=N)N)NC(=O)[C@H](CC(C)C)NC(=O)[C@H](CCCCN)NC(=O)[C@H](CCCNC(=N)N)NC(=O)[C@H](CC(C)C)NC(=O)[C@@H](N)Cc1c[nH]cn1)C(C)C)[C@@H](C)O)C(C)C)[C@@H](C)O)C(=O)O [T-027] (H-HLRKLRKRLLRSLVSQYFQTVTDYGKDLM-OH; N-terminus and C-terminus assumed) |  | significant activity |  |  |  |  | 56.6 µM | concentration-dependent increase in cholesterol import | concentration-dependent cholesterol import activity | 40.1 µM | rely on GAG binding for cholesterol import activity | rely on GAG binding for cholesterol import activity
